Data set [1] deals with Bovine brain tubulin. Briefly: In vitro tubulin polymerization assay (bovine brain tubulin). Type of data set: biochemical. Conditions: 10 μM, 20 min incubation, versus vehicle.
Data set [2] can be described thus: Aqueous solubility, Multiscreen Solubility Filter Plate with LC-MS/MS (PBS pH 7.4). The class given is physicochemical. As to conditions: for aqueous solubility: PBS pH 7.4.
A short description of data set [3]: Metabolic stability in guinea pig liver microsomes. Type of data set: in vitro ADME. Conditions: pH 7.4, phase I pathway, read-out: T ½ (min), guinea pig liver microsomes. (Microsomes from liver hold many membrane-bound enzymes, among them those of drug oxidation.)
The nature of data set [4]: Metabolic stability in hamster liver microsomes. As to conditions: pH 7.4, phase I pathway, read-out: T ½ (min), hamster liver microsomes. The class given is in vitro ADME.
Data set [5] can be described thus: Metabolic stability in human liver microsomes. Conditions: human, liver microsomes, pH 7.4.
Data set [6] in a line: Metabolic stability in rat liver microsomes. The class given is in vitro ADME. Conditions: rat, liver microsomes, pH 7.4; phase I pathway; read-out: T ½ (min), rat liver microsomes.
Data set [7] is described as follows: Metabolic stability in monkey liver microsomes. The class given is in vitro ADME. As to conditions: monkey, pH 7.4.
Data set [8] can be described thus: Metabolic stability in dog liver microsomes. Type of data set: in vitro ADME. Conditions: dog, pH 7.4.
Data set [9] in a line: Metabolic stability in mouse liver microsomes. Type of data set: in vitro ADME. As to conditions: mouse, liver microsomes.
Data set [10] is described as follows: in vivo. Conditions: male, ICR, mouse, plasma, 5 mg/kg.
Data set [11] is described as follows: Metabolic stability in rabbit liver microsomes. The class given is in vitro ADME. As to conditions: pH 7.4, phase I pathway, read-out: T ½ (min), rabbit liver microsomes.
Data set [12] relates to melanoma and prostate cancer cell lines. Briefly: SRB cytotoxicity, summary or average over melanoma and prostate cancer cell lines. The class given is cell-based. Conditions: average of all seven cell lines.
The nature of data set [13]: Water solubility, 48 h shaking in water, LC-MS. Type of data set: physicochemical. The protocol: Determination of water solubility. […] The suspension was centrifuged at 10,000 rpm for 10 min and filtered on 0.22 μm filter. Concentrations of each compound were measured by LC-MS, consisting of an HP S1100 HPLC instrument (Agilent, Foster ceity, CA) and a Bruker ESQUIRE MS detector with electrospray/ion trap instrument in positive ion mode (Bruker, Fremont, CA). For HPLC, a reverse phase Nova-pak C18 column (150 mm×3.9 mm, Waters, Milford, MA) was used. The mobile phase was composed of 20:80 v/v water/acetonitrile. […] The concentration of each compound was calculated by MS peak area according to the following calibration equation: y=1.3295x+114.24 (R^2=1.00). […] The amount (ng) in each injection was plotted again its relative mass peak area to generate the standard curve in FIG. 17.

For data set [14], the system named is A375. In words: SRB cytotoxicity assay, A375 human melanoma cells. Type of data set: cell-based. As to conditions: Homo sapiens, A-375, 48 h, Table 12, 48 h; read-out: IC50 ± SEM A375. For orientation: In SRB staining, fixed cells bind dye roughly in proportion to their protein.
Data set [15] concerns WM-164. Briefly: SRB cytotoxicity assay, WM-164 human melanoma cells. The class given is cell-based. As to conditions: Homo sapiens, WM164, 48 h, Table 12, 48 h; read-out: IC50 ± SEM WM164 (converted).
In data set [16] the test system is PPC-1. Briefly: SRB cytotoxicity assay, PPC-1 prostate cancer cells. Type of data set: cell-based, human. Conditions: Homo sapiens, PPC-1; Table 13B; read-out: inhibitory effects PPC1. The text has this:
(§1) Cells were stained with SRB solution.

Data set [17] relates to MDA-MB-435. Briefly: SRB cytotoxicity assay, MDA-MB-435 parental melanoma cells. Type of data set: cell-based. Conditions: Homo sapiens, read-out: IC50 ± SEM MDA-MB-435.
Data set [18] has as its system PC-3. In words: SRB cytotoxicity assay, PC-3 prostate cancer cells. Type of data set: cell-based, human. Conditions: Homo sapiens, PC-3, read-out: inhibitory effects PC3.
Description: as §1

In data set [19] the test system is LNCaP. Briefly: SRB cytotoxicity assay, LNCaP prostate cancer cells. The class given is cell-based, human. As to conditions: Homo sapiens, LNCaP, read-out: inhibitory effects LNCaP.
Description: as §1

Data set [20] deals with MDA-MB-435/LCCMDR1. Briefly: SRB cytotoxicity assay, multidrug-resistant MDA-MB-435/LCCMDR1 melanoma cells. Type of data set: cell-based, human. Conditions: Homo sapiens, read-out: IC50 ± SEM MDA-MB-435/LCC6MDR1.
In data set [21] the test system is DU 145. Briefly: SRB cytotoxicity assay, DU 145 prostate cancer cells. Type of data set: cell-based. As to conditions: Homo sapiens, read-out: inhibitory effects DU145.
Description: as §1

Data set [22] relates to DU145/TXR. Briefly: SRB growth inhibition, paclitaxel-resistant DU145/TXR cells. The class given is cell-based. Conditions: Homo sapiens, DU-145; Table 13A; read-out: inhibitory effects DU145/TXR.
Data set [23] has as its system WM-164 melanoma cells. Briefly: Microtubule imaging (immunofluorescence) in WM-164 melanoma cells. The class given is cell-based, human. Conditions: 18 h. The text has this: Primary antibody for tubulin and fluorescence-labeled secondary antibody were subsequently added to the cells. Cell nuclei were stained by DAPI. Whole Cell Stain Green was also applied to all cells. All images were acquired with an Olympus IX71 inverted fluorescence microscope (Olympus Corp., Tokyo, Japan) with overlays from separate images of tubulin (red), nuclei (blue), and whole cells (green).

Data set [24] can be described thus: Brain penetration (brain and plasma concentrations) in nude mice. Conditions: IP 10 mpk, mean ± SD.
In data set [25] the test system is PC-3/TxR tumors. Conditions: for tumor growth inhibition (TGI): day 1 and 9.
Setting [26] is: PC-3/TxR xenograft, IV 10 mpk, day 1 and 9, end point day 19.

Values after ≈ are worked out from the molar mass of the structure shown. Where a name gives a salt, the structure may show the parent alone. Read-outs that look alike come from different tables or passages of the source.

Broadly, the aqueous solubility is the dissolved amount per volume that the medium holds. Usually AUC stands for concentration integrated over time. For orientation: Cmax means the peak of the concentration-time curve. What is called bioavailability is the share of a dose that reaches the circulation, judged against a reference dose that is usually intravenous. For orientation: Vd means a proportionality between amount in the body and measured concentration, not a real space. As a reminder, the clearance is the volume of plasma or blood freed of the substance per unit of time. Broadly, the solubility is how much of the substance goes into solution per volume. As a reminder, the TGI is how far tumour growth fell short of that in controls.

As to `COc1cc(C(=O)c2cccc(-c3ccccc3)n2)cc(OC)c1OC` [1c, (6-Phenylpyridin-2-yl)(3,4,5-trimethoxyphenyl)methanone], the “inhibition of tubulin polymerization” value in [1] was determined as 64%.

Turning to `COc1cc(C(=O)c2csc(-c3ccc(CN)cc3)n2)cc(OC)c1OC` [2r, (2-(4-(Aminomethyl)phenyl)thiazol-4-yl)(3,4,5-trimethoxyphenyl)methanone hydrochloride], in [2] (HCl salt versus 1h), the “increase of solubility (fold)” value is recorded as “over 35 fold”.

`COc1cc(C(=O)c2csc(Nc3ccccc3)n2)cc(OC)c1OC` [5a, (2-(phenylamino)thiazol-4-yl)(3,4,5-trimethoxyphenyl)methanone] displayed an aqueous solubility in [2] of 15 µg/mL (≈ 40.5 µM).

`COc1cc(C(=O)c2csc(Nc3ccc(F)cc3)n2)cc(OC)c1OC` [5c, (2-(p-fluorophenylamino)thiazol-4-yl)(3,4,5-trimethoxyphenyl)methanone] registered an aqueous solubility in data set [2] of 19 µg/mL (≈ 48.9 µM).

On to `Fc1ccc(-c2nccc3ccc(-c4ccc5[nH]ccc5c4)cc23)cc1` [6c, 1-(4-Fluoro-phenyl)-7-(1H-indol-5-yl)-isoquinoline], for which the half-life at 0.5 μM was 8 min in data set [3]; 20 min in data set [4]; 47 min in data set [5]; 14 min in [6]; 9 min in [7] (liver microsomes, phase I pathway, read-out: T ½ (min), monkey liver microsomes); 9 min in [7] (monkey liver microsomes, Table 20, read-out: Half life in Monkey liver microsome). The half-life at 0.5 μM in [8] (dog liver microsomes, Table 20, read-out: Half life in Dog liver microsome) worked out at 29 min; in data set [8] (liver microsomes, phase I pathway, read-out: T ½ (min), dog liver microsomes), 29 min; in [9] (pH 7.4, Table 20, read-out: Half life in Mouse liver microsome), 13 min; in data set [9] (pH 7.4, phase I pathway, read-out: T ½ (min), mouse liver microsomes), 13 min; in data set [11], 16 min. For the same compound, the area under the curve (AUC) in [10] (ip) was 917 ng·h/mL; in [10] (po), 66.7 ng·h/mL. Further, the results for the Cmax in [10] (ip) and in data set [10] (po) were 1100 ng/mL and 50 ng/mL, respectively. Also, the bioavailability in [10] (ip) came out at 33%; in data set [10] (po), 2.7%. The Vd in data set [10] (iv) is 1.8 L/kg. This compound came in with a clearance in data set [10] (iv) of 30 mL/min/kg.

In [12], `COc1cc(C(=O)c2c[nH]c(-c3ccc(N(C)C)cc3)n2)cc(OC)c1OC` [12ga, (2-(4-(dimethylamino)phenyl)-1H-imidazol-4-yl)(3,4,5-trimethoxyphenyl)methanone] returned an IC50 of 131 nM. In addition, the “water solubility, times greater than thiazole counterpart” value in data set [13] is on record as “about 200 times”. In data set [13] (thermodynamic from solid, water, 48 h, RT), this compound came in with a solubility at 48 h of 13 µg/mL (≈ 34.1 µM).

In the case of `CN(C)c1ccc(-c2nc(C(=O)c3ccc(F)cc3)c[nH]2)cc1` [12gb, (2-(4-(dimethylamino)phenyl)-1H-imidazol-4-yl)(4-fluorophenyl)methanone], the IC50 was 56 ± 7 nM in data set [14] and 62 ± 8 nM in data set [15].

In [2], `COc1cc(C(=O)c2csc(-c3ccc4[nH]ccc4c3)n2)cc(OC)c1OC` [66a] came in with an aqueous solubility of 3.8 µg/mL (≈ 9.63 µM).

On to `O=C(c1ccccc1)c1nc(-c2ccccc2)c[nH]1` [70aa, phenyl-(4-phenyl-1H-imidazol-2-yl)methanone], for which the IC50 in [16], in [17] (Table 14D), in [18] (Table 13B), in [19] (Table 13B), in [20] (Table 14D) and in data set [21] (Table 13B) was more than 50000 nM in each case.

On to `COc1cc(C(=O)c2nc(-c3ccc(Br)cc3)c[nH]2)cc(OC)c1OC` [70d, (4-(4-bromophenyl)-1H-imidazol-2-yl)(3,4,5-trimethoxyphenyl)methanone], for which the IC50 in data set [18] (Table 13A) was 33 nM; in data set [19] (Table 13A), 15 nM; in data set [21] (Table 13A), 66 nM; in data set [22], 63 nM.

For `COc1cc(C(=O)c2nc(-c3ccc(C)cc3)c[nH]2)cc(OC)c1OC` [70f, (4-p-tolyl-1H-imidazol-2-yl)(3,4,5-trimethoxyphenyl)methanone], the IC50 in [19] (Table 13A) is 13 nM; in data set [22], 21 nM.

Consider `COc1cc(C(=O)c2nc(-c3cc(OC)c(OC)c(OC)c3)c[nH]2)cc(OC)c1OC` [70q, 3,4,5-trimethoxyphenyl-(4-(3,4,5-trimethoxyphenyl)-1H-imidazol-2-yl)methanone], for which the IC50 was more than 50000 nM in [16]; 149 nM in data set [17] (Table 14D); more than 50000 nM in [18] (Table 13B); more than 50000 nM in [19] (Table 13B); 211 nM in data set [20] (Table 14D); more than 50000 nM in data set [21] (Table 13B).

`CCc1[nH]c(Cc2cc(OC)c(OC)c(OC)c2)nc1-c1ccccc1` [102c, 5-ethyl-4-phenyl-2-(3,4,5-trimethoxybenzyl)-1H-imidazole]: the IC50 in [17] (Table 14C) and in [20] (Table 14C) was more than 50000 nM throughout.

Consider `CCCc1[nH]c(Cc2cc(OC)c(OC)c(OC)c2)nc1-c1ccccc1` [102d, 4-phenyl-5-propyl-2-(3,4,5-trimethoxybenzyl)-1H-imidazole], for which the figures for the IC50 in [17] (Table 14C) and in [20] (Table 14C) were 11000 nM and 15900 nM, respectively.

As for `COc1ccc(S(=O)(=O)Nc2cccnc2Nc2ccc(O)cc2)cc1` [ABT-751, reference compound], the effect on microtubules result in data set [23] is “microtubule fragmentation”.

In [13] (water, 48 h, RT), `COc1cc(C(=O)c2csc(-c3ccc(N(C)C)cc3)n2)cc(OC)c1OC` [corresponding thiazole analog] returned a water solubility of 0.072 µg/mL (≈ 0.181 µM).

As for `CC(=O)O[C@@]12CO[C@@H]1C[C@H](O)[C@@]1(C)C(=O)[C@H](O)C3=C(C)[C@@H](OC(=O)[C@H](O)[C@@H](NC(=O)OC(C)(C)C)c4ccccc4)C[C@@](O)([C@@H](OC(=O)c4ccccc4)[C@H]21)C3(C)C` [docetaxel, Docetaxel], the Brain in data set [24] (1 hr) worked out at 33 ± 14 ng/mL; in data set [24] (4 hr), 20 ± 9 ng/mL. Also, the Plasma in [24] (1 hr) is listed as 768 ± 92 ng/mL; in [24] (4 hr) it was 345 ± 94 ng/mL. Further, the TGI in data set [25] (setting [26]) is given as 14%; in [25] (PC-3/TxR xenograft, IV 20 mpk, day 1 and 9, end point day 19) it was 56%. Also, in data set [25] (setting [26]), the “Tumor size End” value worked out at 1774 ± 183 mm^3. Moreover, the figures for the “tumor growth inhibition (TGI)” value in data set [25] (i.v. 10 mg/kg) and in data set [25] (i.v. 20 mg/kg) were 14% and 56%, respectively.

For the origin of these results see patent US12187720B2, “Compounds for treatment of cancer” (ONCTERNAL THERAPEUTICS, INC., priority 2010, dated 2025).
